Where two headings read alike, the source gives them in different places.
Molecular target: hQC (Homo sapiens, UniProt Q16769)
Test: Fluorometric assay of glutaminyl cyclase (QC) inhibition, H-Gln-βNA or H-Gln-AMC substrate
Assay type: biochemical
Summary of the method: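 Ki values were obtained by fitting progress curves to a competitive-inhibition equation, and the rapid screen used 4 mM inhibitor with substrate at 1 KM. Both readouts coupled pyroglutamyl aminopeptidase at pH 8.0 and 30° C: H-Gln-βNA at 0.2 mM (ex/em 320/410 nm) or H-Gln-AMC (380/460 nm).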

Chain of hQC (Q16769 29-361): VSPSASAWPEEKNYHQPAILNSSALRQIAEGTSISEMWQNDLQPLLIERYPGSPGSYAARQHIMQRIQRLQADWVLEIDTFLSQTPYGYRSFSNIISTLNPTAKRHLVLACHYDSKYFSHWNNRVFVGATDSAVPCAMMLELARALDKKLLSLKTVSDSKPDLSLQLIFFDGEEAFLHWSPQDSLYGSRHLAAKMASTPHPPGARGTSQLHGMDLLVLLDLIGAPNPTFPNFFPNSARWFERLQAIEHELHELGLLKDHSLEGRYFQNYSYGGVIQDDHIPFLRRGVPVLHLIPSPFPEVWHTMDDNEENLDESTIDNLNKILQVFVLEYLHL

Structure (SMILES) | IC50 (compound from preparative synthesis, purified by chromatography, fluorescent assay, read-out: IC50 hQC) | IC50 (read-out: IC50)
CC1=CC(C)C(C2/C(=N/C(C)C)NC(=O)N2c2ccc3[nH]cnc3c2)CC1 (stereo not drawn) [Compound 254, 1-(1H-Benzoimidazol-5-yl)-5-(2,4-dimethyl-cyclohex-3-enyl)-4-(isopropylimino)-imidazolidin-2-one] | 0.997 µM | 0.004 µM
O=C1CCCN1CCC/N=C1/NC(=S)N(c2ccc3[nH]cnc3c2)C1c1ccc2c(c1)OCO2 (stereo not drawn) [Compound 255, 1-(3-(5-(benzo[d][1,3]dioxol-5-yl)-1-(1H-benzo[d]imidazol-5-yl)-2-thioxoimidazolidin-4-ylideneamino)propyl)pyrrolidin-2-one] |  | 6.7 µM
S=C1N/C(=N\C2CCCC2)C(c2ccc3ccccc3c2)N1c1ccc2[nH]cnc2c1 (stereo not drawn) [Compound 256, 1-(1H-Benzoimidazol-5-yl)-4-cyclopentylimino-5-naphthalen-2-yl-imidazolidine-2-thione] |  | 9.4 µM
Cc1nc[nH]c1C1/C(=N/C2CCc3ccccc32)NC(=O)N1c1ccc2nc[nH]c2c1 (stereo not drawn) [Compound 257, 3-(3H-Benzoimidazol-5-yl)-5-indan-1-ylimino-5′-methyl-1,3,4,5-tetrahydro-3′H-4,4′biimidazolyl-2-one] |  | 0.4 µM
S=C1N/C(=N/CCCc2ccccc2)C(c2cc3ccccc3s2)N1c1ccc2[nH]cnc2c1 (stereo not drawn) [Compound 258, 5-Benzobthiophen-2-yl-1-(1H-benzoimidazol-5-yl)-4-3-phenyl-propylimino-imidazolidine-2-thione] |  | 3.1 µM
CC1=CC(C)C(C2/C(=N/c3ccc4c(c3)OCCO4)NC(=O)N2c2ccc3[nH]cnc3c2)CC1 (stereo not drawn) [Compound 259, 1-(1H-Benzoimidazol-5-yl)-4-2,3-dihydro-benzo1,4dioxin-6-ylimino-5-(2,4-dimethyl-cyclohex-3-enyl)-imidazolidin-2-one] |  | 2.2 µM
S=C1N/C(=N/CCc2cccs2)C(c2cc3ccccc3s2)N1c1ccc2[nH]cnc2c1 (stereo not drawn) [Compound 260, 5-Benzobthiophen-2-yl-1-(1H-benzoimidazol-5-yl)-4-2-thiophen-2-yl-ethylimino-imidazolidine-2-thione] |  | 3.1 µM
S=C1N/C(=N/Cc2ccccc2)C(c2cccc(Br)c2)N1c1ccc2[nH]cnc2c1 (stereo not drawn) [Compound 261, 1-(1H-Benzoimidazol-5-yl)-4-benzylimino-5-(3-bromo-phenyl)-imidazolidine-2-thione] |  | 6.7 µM
Cc1ccc(C2/C(=N/C(C)(C)CC(C)(C)C)NC(=O)N2c2ccc3nc[nH]c3c2)c(C)c1 (stereo not drawn) [Compound 262, 1-(3H-Benzoimidazol-5-yl)-5-(2,4-dimethyl-phenyl)-4-1,1,3,3-tetramethyl-butylimino-imidazolidin-2-one] |  | 1.3 µM
Cc1ccc2occ(C3/C(=N/CCCN4CCOCC4)NC(=O)N3c3ccc4[nH]cnc4c3)c(=O)c2c1 (stereo not drawn) [Compound 263, 1-(1H-Benzoimidazol-5-yl)-5-(6-methyl-4-oxo-4H-chromen-3-yl)-4-3-morpholin-4-yl-propylimino-imidazolidin-2-one] |  | 1.3 µM
S=C1N/C(=N\c2ccccc2Br)C(c2ccc3ccccc3c2)N1c1ccc2nc[nH]c2c1 (stereo not drawn) [Compound 264, 1-(3H-Benzoimidazol-5-yl)-4-2-bromo-phenylimino-5-naphthalen-2-yl-imidazolidine-2-thione] |  | 8.5 µM
O=C(C/N=C1/NC(=O)N(c2ccc3[nH]cnc3c2)C1C1=CCCCC1)N1CCSCC1 (stereo not drawn) [Compound 265, 1-(1H-Benzoimidazol-5-yl)-5-cyclohex-1-enyl-4-2-oxo-2-thiomorpholin-4-yl-ethylimino-imidazolidin-2-one] |  | 8.5 µM
S=C1N/C(=N\C2CCCCC2)C(c2cc3c(cc2Br)OCO3)N1c1ccc2nc[nH]c2c1 (stereo not drawn) [Compound 266, 1-(3H-Benzoimidazol-5-yl)-5-(6-bromo-benzo1,3dioxol-5-yl)-4-cyclohexylimino-imidazolidine-2-thione] |  | 8.5 µM
Cc1ccc2occ(C3/C(=N/CCCN4CCCC4=O)NC(=O)N3c3ccc4[nH]cnc4c3)c(=O)c2c1 (stereo not drawn) [Compound 267, 1-(1H-Benzoimidazol-5-yl)-5-(6-methyl-4-oxo-4H-chromen-3-yl)-4-3-(2-oxo-pyrrolidin-1-yl)-propylimino-imidazolidin-2-one] |  | 4.9 µM
